Assay results as given in patent US7271252B2, “Reagents for detecting efavirenz” (Roche Diagnostics Operations, Inc., priority 2003, dated 2007).
Like-named read-outs stand apart in the source and are kept apart here.

Tests used:
HIV [1] = conditions: cited from earlier work
[2] = test system: serum antibodies raised against efavirenz-KLH conjugate; experiment: Competitive inhibition ELISA: binding of mouse serum antibody to N-linked BSA-efavirenz conjugate; set-up: species or system mice; conditions: free drug, serum of one mouse, OD450, FIG. 3
Method: The sera were titered for antibody activity via an antigen specific ELISA. Wells of a styrene 96-well plate were coated with efavirenz N-linked BSA conjugate 5 by placing 50 μL of a 0.1 μg/mL efavirenz-BSA conjugate solution into 0.1 M potassium carbonate, pH 9.2, in the wells and incubating the covered plate at 37° C. for 1 hour. The solution was removed, and the wells were immediately filled with a post coat solution consisting of 1% gelatin hydrolysate, 2% sucrose, 0.1 M Tris buffer, pH 7.4, and 0.15% TWEEN 20 (all reagents from Sigma Chemical Co.), covered and incubated as above. Subsequently, the plates were rinsed once with 2% sucrose and air-dried. Once dry, the plates were sealed into aluminum foil clad plastic bags with a desiccant and stored at 4° C. until used.
Titering consisted of preparing an initial 1:100 dilution of the sera in PBS-T, then seven serial 1:3 dilutions. […] Color that developed was read in a microplate reader equipped with a 450 nm filter. The color intensities were plotted versus the final serum dilutions, and the dilution point at which 50% of the maximum reading was obtained was recorded.
For determining competitive inhibition, plates treated as above were used. […] Serum dilutions of twice the concentration determined above were then prepared, and 25 μL was placed into each well of the column. […]

HIV [3] = conditions: cited from earlier work; remark: listed apart in the source
[4] = cited from earlier work
[5] = taken with other anti-HIV medicines

O=C1Nc2ccc(Cl)cc2[C@@](C#CC2CC2)(C(F)(F)F)O1 [efavirenz]
virological failure, share of patients (HIV [1]; patients with low plasma levels of efavirenz, <1000 μg/L, 85 total patients): 50% | virological failure, share of patients (HIV [1]; patients with plasma levels of efavirenz 1000-4000 μg/L or more than 4000 μg/L): 18-22% | competitive inhibition of binding of serum antibodies to the drug conjugate absorbed to the microplate [2]: confers a competitive inhibition of binding | amount of HIV in the blood (viral load) (HIV [3]; efavirenz): lower the amount of HIV in the blood | CD4 cell count (HIV [3]; [5]): increase their CD4 cell count | patients' viral load (HIV [3]; [5]): reduce patients' viral load | frequency of CNS toxicity at high versus mid plasma levels ([4]; efavirenz levels >4000 μg/L compared with 1000-4000 μg/L): approximately three times more frequent | patients reporting central nervous system (CNS) side effects ([4]; human, in vivo): 20-40% | patients who discontinue therapy because of severity or persistence of CNS side effects ([4]; human, in vivo): about 4%
